According to patent US20260325605A1, “INHIBITORS” (Zealand Pharma A/S, priority 2022, published 2026):

Columns and labels:
[1] = tested on: T-cell activation in rat whole blood; test: Example 4: IL-17A release in thapsigargin stimulated rat whole blood; type: cell-based, rat (Lewis or Sprague-Dawley); settings: 24 Hr, at least 2 replicates, unit inferred, read-out: IC50 (inhibition of IL-17A release)
Source text: Rat whole blood was used to assess the potency of Kv1.3 inhibitor peptides on T-cell activation as determined by IL-17A release after stimulation with thapsigargin. Addition of thapsigargin results in activation of a signalling cascade ending up in activation of T cell proliferation and cytokine production where the Kv1.3 ion channel plays a key role, so activity of Kv1.3 inhibitors in primary cells can be measured in this experimental system.
Rat whole blood was obtained from healthy, naïve Lewis or Sprague-Dawley rats that were terminally bleed from the heart using Sodium Heparin blood sampling tubes for collection. Peptides were diluted to 4× final testing concentrations in assay buffer (DMEM+GlutaMAX), GlutaMAX is a medium comprising 3.97 mM L-alanine-L-glutamine (Gibco Cat #61965026) supplemented with 25 mM HEPES buffer, 1 mM Sodium Pyruvate, 100 units/ml Penicillin, 100 μg/ml Streptomycin and 0.05% Casein from bovine milk (Sigma-Aldrich)) and 25 μl was added to wells of a 96 well plate. Then 50 μl whole rat blood was added and incubated for minimum 5 minutes at room temperature to allow compound binding. Then 25 μl 40 μM thapsigargin diluted in assay buffer was added to all wells of the assay plates to activate the cells, followed by incubation for 24 Hr at 37° C./5% CO2 in a humidified box. The assay plates were centrifuged for 10 min at 300 g at 4° C. and the supernatants were transferred to new plates. The concentrations of IL-17A released to the supernatants were measured using a Rat IL-17A ELISA Kit (Abcam Cat #ab214028) as recommended by the manufacturer. Samples were diluted 2.5-fold by transferring 20 μl of the supernatants to wells on ELISA plates containing 30 μl buffer 75BS from the detection kit.
Data from peptides eliciting an inhibition of IL-17A were normalised relative to full thapsigargin activation (no inhibitor added) and no activation controls (addition of assay buffer instead of thapsigargin) to calculate the IC50 from the concentration response curve.
Results are shown in Table 5, expressed as IC50, with standard deviation (IC50_SD). All values are derived from at least 2 replicates. The biological effects ex vivo show a correlation with the potency of the peptides.

Kv1.3 = biological target: T1, Kv1.3 (Homo sapiens, UniProt P22001); test: Patch clamp assay (QPatch), Kv1.3; type: cell-based; settings: CHO cells stably expressing human Kv1.3, read-out: Potency IC50, Kv1.3
T1 construct: expressed in transfected cells
T1 sequence (P22001 whole entry): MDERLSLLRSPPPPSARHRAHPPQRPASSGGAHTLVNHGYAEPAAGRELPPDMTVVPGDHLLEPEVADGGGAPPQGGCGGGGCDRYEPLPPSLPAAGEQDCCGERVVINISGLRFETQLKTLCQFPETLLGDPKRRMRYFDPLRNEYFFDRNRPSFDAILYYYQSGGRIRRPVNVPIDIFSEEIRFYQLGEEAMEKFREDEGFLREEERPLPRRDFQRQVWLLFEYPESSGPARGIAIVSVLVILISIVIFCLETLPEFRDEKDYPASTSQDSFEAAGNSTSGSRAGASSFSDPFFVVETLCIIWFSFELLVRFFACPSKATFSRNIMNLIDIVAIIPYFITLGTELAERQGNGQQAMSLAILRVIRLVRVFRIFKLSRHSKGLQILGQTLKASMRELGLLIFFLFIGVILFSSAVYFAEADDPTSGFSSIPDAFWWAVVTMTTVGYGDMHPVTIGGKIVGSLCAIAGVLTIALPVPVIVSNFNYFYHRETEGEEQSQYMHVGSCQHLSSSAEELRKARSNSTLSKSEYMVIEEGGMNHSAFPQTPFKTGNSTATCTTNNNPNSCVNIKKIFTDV
Protocol: Selectivity of Kv1.3 inhibitor peptides for Kv1.3 over other potassium ion channels (Kv1.1, Kv1.2 and Kv1.6) was determined using patch clamp assay.
Chinese Hamster Ovary (CHO) cell lines stably expressing exogenous human α-subunits of each potassium ion channel were grown and passaged under standard culture conditions.
The automated, chip-based planar patch clamp device QPatch® was used to quantitate the ionic currents. All recordings were made in the conventional whole-cell configuration after establishment of gigaohm seals. […] During experiments 0.1% (v/v) BSA was included as a vehicle in all external recording solutions. Currents were elicited from a holding potential of −80 mV using a voltage protocol, which shifted the voltage to 30 mV for 500 ms every 15 s.
Concentration-response relationships were established by cumulatively applying seven escalating concentrations of test sample to an individual cell with a recording period of 2 min per compound application.
The efficacy was determined as the mean charge for the last three sweeps at the end of each concentration application period from the cursor positions. The percent inhibition for each test dose application period was calculated as the reduction in mean cursor value (charge) relative to the cursor value measured at the end of the vehicle period and used to calculate the IC50 from the concentration response curve.

Kv1.1 = biological target: T2, Kv1.1 (Homo sapiens, UniProt Q09470); test: Patch clamp assay (QPatch), Kv1.1; type: cell-based; settings: for IC50: QPatch, CHO cells stably expressing human Kv1.1, read-out: Potency IC50, Kv1.1; for Selectivity Kv1.1/Kv1.3: ratio of IC50 Kv1.1/Kv1.3
T2 construct: expressed in transfected cells
T2 sequence (Q09470 whole entry): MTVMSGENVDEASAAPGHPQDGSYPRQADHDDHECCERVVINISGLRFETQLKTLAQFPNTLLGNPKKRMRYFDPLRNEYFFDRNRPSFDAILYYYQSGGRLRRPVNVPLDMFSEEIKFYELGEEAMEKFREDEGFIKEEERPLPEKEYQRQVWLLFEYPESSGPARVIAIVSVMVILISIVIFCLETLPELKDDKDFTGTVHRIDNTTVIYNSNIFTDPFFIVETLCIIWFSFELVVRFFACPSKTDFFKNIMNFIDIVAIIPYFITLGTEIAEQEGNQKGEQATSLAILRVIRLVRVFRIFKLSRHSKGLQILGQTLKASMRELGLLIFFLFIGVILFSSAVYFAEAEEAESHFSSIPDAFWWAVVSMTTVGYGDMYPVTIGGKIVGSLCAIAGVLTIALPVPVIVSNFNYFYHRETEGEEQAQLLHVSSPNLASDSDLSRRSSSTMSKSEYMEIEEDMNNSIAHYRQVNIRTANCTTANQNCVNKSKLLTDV

Kv1.6 = biological target: T3, Kv1.6 (Homo sapiens, UniProt P17658); test: Patch clamp assay (QPatch), Kv1.6; type: cell-based; settings: for IC50: QPatch, CHO cells stably expressing human Kv1.6, read-out: Potency IC50, Kv1.6; for Selectivity Kv1.6/Kv1.3: ratio of IC50 Kv1.6/Kv1.3
T3 construct: expressed in transfected cells
T3 sequence (P17658 whole entry): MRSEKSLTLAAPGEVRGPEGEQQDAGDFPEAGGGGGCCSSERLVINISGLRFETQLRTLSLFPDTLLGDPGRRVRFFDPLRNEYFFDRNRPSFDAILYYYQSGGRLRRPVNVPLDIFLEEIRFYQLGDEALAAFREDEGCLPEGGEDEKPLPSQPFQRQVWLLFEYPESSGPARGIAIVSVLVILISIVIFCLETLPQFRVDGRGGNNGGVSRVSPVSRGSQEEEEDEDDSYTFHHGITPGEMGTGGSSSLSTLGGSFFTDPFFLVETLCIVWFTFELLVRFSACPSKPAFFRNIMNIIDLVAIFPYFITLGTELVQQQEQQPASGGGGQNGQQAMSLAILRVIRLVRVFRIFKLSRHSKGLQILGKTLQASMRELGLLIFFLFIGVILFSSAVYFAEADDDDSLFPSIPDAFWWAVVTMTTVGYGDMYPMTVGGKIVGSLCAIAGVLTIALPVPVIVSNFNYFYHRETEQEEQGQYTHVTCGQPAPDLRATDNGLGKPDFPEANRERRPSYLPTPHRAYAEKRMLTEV

Kv1.2 = biological target: T4, Kv1.2 (Homo sapiens, UniProt P16389); test: Patch clamp assay (QPatch), Kv1.2; type: cell-based; settings: for IC50: QPatch, CHO cells stably expressing human Kv1.2, read-out: Potency IC50, Kv1.2; for Selectivity Kv1.2/Kv1.3: ratio of IC50 Kv1.2/Kv1.3
T4 construct: expressed in transfected cells
T4 sequence (P16389 whole entry): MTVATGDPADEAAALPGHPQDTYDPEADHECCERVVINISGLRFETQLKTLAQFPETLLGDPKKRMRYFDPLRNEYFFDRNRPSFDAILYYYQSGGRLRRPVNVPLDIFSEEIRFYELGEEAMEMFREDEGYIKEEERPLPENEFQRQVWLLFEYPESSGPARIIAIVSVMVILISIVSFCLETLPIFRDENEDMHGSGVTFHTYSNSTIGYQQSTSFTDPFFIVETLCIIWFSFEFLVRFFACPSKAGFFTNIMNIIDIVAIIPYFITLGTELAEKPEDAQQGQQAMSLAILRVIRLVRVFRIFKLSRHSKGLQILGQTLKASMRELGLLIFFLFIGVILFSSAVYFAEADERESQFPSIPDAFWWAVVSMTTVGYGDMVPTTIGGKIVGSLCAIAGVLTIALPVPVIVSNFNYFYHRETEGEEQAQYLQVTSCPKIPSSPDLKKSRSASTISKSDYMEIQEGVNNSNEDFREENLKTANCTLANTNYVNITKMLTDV

Substance | IC50 [1] [nM] | IC50 (Kv1.3) [nM] | IC50 (Kv1.1) [nM] | Selectivity Kv1.1/Kv1.3 (Kv1.1) | IC50 (Kv1.6) [nM] | Selectivity Kv1.6/Kv1.3 (Kv1.6) | IC50 (Kv1.2) [nM] | Selectivity Kv1.2/Kv1.3 (Kv1.2)
H-H[Nle]D[Nle]RC(1)SASVEC(2)KQKC(3)LKAIGSIFGKC(1)[Nle]NKKC(2)KC(3)YPR-NH2 [Peptide 65] | 1.2 | 0.25 | – | – | – | – | – | –
H-RC(1)SASVEC(2)KQKC(3)LKAIGSIFGKC(1)[Nle]NKKC(2)KC(3)YPR-NH2 [Peptide 111] | 0.52 | 0.4 | > 3000 | >7600 | 1300 | 3290 | 280 | 708
H-N[Nle]D[Nle]RC(1)RASVEC(2)KQKC(3)LKAIGSIFGKC(1)[Nle]NKKC(2)KC(3)YPR-NH2 [Peptide 43] | 0.91 | 0.16 | > 3000 | >18600 | 316 | 1954 | 109 | 674
H-C(1)SASVEC(2)KQKC(3)LKAIGSIFGKC(1)MNKKC(2)KC(3)YPR-OH [Peptide 124] | 1.9 | 2.09 | > 3000 | >1400 | > 3000 | >1400 | 1830 | 878
H-S[Nle]D[Nle]RC(1)SASVEC(2)KQKC(3)LKAIGSIFGKC(1)MNKKC(2)RC(3)YPR-NH2 [Peptide 77] | 0.86 | 0.13 | – | – | – | – | – | –
Ac-LRC(1)SASVEC(2)KQKC(3)LKAIGSIFGKC(1)[Nle]NKKC(2)KC(3)YPR-NH2 [Peptide 114] | 0.37 | 0.35 | > 3000 | >8700 | 2460 | 7096 | 122 | 352
H-NMDMRC(1)SASVEC(2)KQKC(3)KKAIGSIFGKC(1)MNKKC(2)KC(3)YPR-NH2 [Peptide 20] | 0.56 | 0.22 | > 3000 | >13500 | 435 | 1955 | 45 | 202
H-NMDMRC(1)SASVEC(2)KQLC(3)LKAIGSIFGKC(1)MNKKC(2)KC(3)YPR-NH2 [Peptide 19] | 3.2 | 0.24 | > 3000 | >12700 | > 3000 | >12700 | 256 | 1080
H-N[Nle]S[Nle]RC(1)SASVEC(2)KQKC(3)LKAIGSIFGKC(1)[Nle]NKKC(2)KC(3)YPR-NH2 [Peptide 47] | 0.79 | 0.32 | > 3000 | >9400 | 1400 | 4359 | 302 | 943
H-S[Nle]DERC(1)SASVEC(2)KQKC(3)LKAIGSIFGKC(1)MNKKC(2)KC(3)YPR-NH2 [Peptide 78] | 0.55 | 0.28 | > 3000 | >10600 | > 3000 | >10600 | 122 | 430
H-NMDMRC(1)SASVEC(2)LQKC(3)LKAIGSIFGKC(1)MNKKC(2)KC(3)YPR-NH2 [Peptide 30] | 0.76 | 0.4 | > 3000 | >7400 | > 3000 | >7400 | 874 | 2163
H-NMDMRC(1)SISVEC(2)KQKC(3)LKAIGSIFGKC(1)MNKKC(2)KC(3)YPR-NH2 [Peptide 27] | 0.61 | 0.26 | > 3000 | >11800 | > 3000 | >11800 | 43 | 169
H-NMDMRC(1)SASVEC(2)KLKC(3)LKAIGSIFGKC(1)MNKKC(2)KC(3)YPR-NH2 [Peptide 33] | 0.75 | 0.38 | – | – | – | – | – | –
H-[Nle]D[Nle]RC(1)SASVEC(2)KQKC(3)LKAIGSIFGKC(1)[Nle]NKKC(2)KC(3)YPR-OH [Peptide 97] | 0.55 | 0.17 | > 3000 | >17800 | > 3000 | >17800 | 1860 | 11034
H-S[Nle]D[Nle]RC(1)SASVEC(2)KQKC(3)LKAIGSIFGKC(1)MNKKC(2)KC(3)[F(4-NH2)]PR-NH2 [Peptide 72] | 0.79 | 0.25 | > 3000 | >12200 | > 3000 | >12200 | 423 | 1720
H-N[Nle]D[Nle]RC(1)SASKEC(2)KQKC(3)LKAIGSIFGKC(1)[Nle]NKKC(2)KC(3)YPR-NH2 [Peptide 64] | 0.68 | 0.31 | > 3000 | >9600 | 1230 | 3929 | 184 | 587
Ac-SKC(1)SASVEC(2)KQKC(3)LKAIGSIFGKC(1)[Nle]NKKC(2)KC(3)YPR-NH2 [Peptide 113] | 0.36 | 1 | > 3000 | >3000 | 1450 | 1451 | 196 | 196
H-NMDMRC(1)SASVEC(2)KEKC(3)LKAIGSIFGKC(1)MNKKC(2)KC(3)YPR-NH2 [Peptide 32] | 0.86 | 0.28 | > 3000 | >10800 | > 3000 | >10800 | 179 | 648
Ac-C(1)SASVEC(2)KQKC(3)LKAIGSIFGKC(1)[Nle]NKKC(2)KC(3)YPR-NH2 [Peptide 109] | 0.88 | 0.24 | > 3000 | >12400 | > 3000 | >12400 | 384 | 1591
H-NMDMRC(1)SASVEC(2)KQKC(3)LKAIESIFGKC(1)MNKKC(2)KC(3)YPR-NH2 [Peptide 23] | 2.8 | 0.29 | > 3000 | >10200 | > 3000 | >10200 | 181 | 615
H-NMDMRC(1)SASREC(2)KQKC(3)LKAIGSIFGKC(1)MNKKC(2)KC(3)YPR-NH2 [Peptide 28] | 0.68 | 0.12 | > 3000 | >25900 | 206 | 1778 | 11 | 94
H-N[Nle]D[Nle]RC(1)SASVEC(2)KKKC(3)LKAIGSIFGKC(1)[Nle]NKKC(2)KC(3)YPR-NH2 [Peptide 46] | 1.4 | 0.75 | > 3000 | >4000 | > 3000 | >4000 | 257 | 343
H-V[Nle]D[Nle]RC(1)SASVEC(2)KQKC(3)LKAIGSIFGKC(1)[Nle]NKKC(2)KC(3)YPR-NH2 [Peptide 69] | 0.98 | 0.32 | – | – | – | – | – | –
H-S[Nle]D[Nle]RC(1)SASVEC(2)AQSC(3)LKAIGSIFGKC(1)MNKKC(2)KC(3)YPR-NH2 [Peptide 81] | – | 0.21 | > 3000 | >14600 | > 3000 | >14600 | 1150 | 5596
H-S[Nle]D[Nle]RC(1)SASVEC(2)KQKC(3)LKAIGSIFGKC(1)[Nle]NKKC(2)KC(3)YPR-NH2 [Peptide 67] | 0.47 | 0.18 | – | – | – | – | – | –
H-Y[Nle]D[Nle]RC(1)SASVEC(2)KQKC(3)LKAIGSIFGKC(1)[Nle]NKKC(2)KC(3)YPR-NH2 [Peptide 66] | 1.1 | 0.14 | – | – | – | – | – | –
